Data taken from patent US12000825B2, “Method of selecting stem cells having ability to produce extracellular vesicles with high efficiency using activation of protease-activated receptor-mediated signaling pathways” (SAMSUNG LIFE PUBLIC WELFARE FOUNDATION, priority 2019, dated 2024).
Entries after “also recorded” stand apart in the source; their conditions may differ.

Columns and labels:
[1] = tested on: Human umbilical cord blood-derived mesenchymal stem cells (MSCs); test: Early endosome labeling (CellLight Early Endosomes-GFP); format: cell-based
Procedure: Early endosomes were labeled using CellLight® reagent-green fluorescent protein (GFP), BacMam 2.0 (Thermo Fisher Scientific, San Jose, CA, USA) according to the manufacturer's instructions. Briefly, mesenchymal stem cells were dispensed in a 12-well plate at a density of 1.5×10^4 per well, and after cells were attached, BacMam 2.0 reagent was added at a concentration of 40 particles per cell (PPC). Next, to measure Rab5α-GFP expression, early endosomes were labeled using CellLight® early endosomes-GFP, BacMam 2.0. Thereafter, to estimate the number of GFP-labeled endosomes, the optical density of green immunofluorescence was measured using ImageJ (National Institutes of Health, Bethesda, MD, USA).

[2] = tested on: Human umbilical cord blood-derived mesenchymal stem cells (MSCs); test: Isolation and quantification of extracellular vesicles (NanoSight); format: cell-based; settings: for production of EVs: 6 hours, FIG. 1A
Procedure: (§1) To pretreat the umbilical cord blood-derived mesenchymal stem cells with thrombin, first, the mesenchymal stem cells were cultured in α-MEM (Gibco, Grand Island, NY, USA) supplemented with 10% (v/v) fetal bovine serum (FBS, Gibco), 100 units/mL penicillin, and 100 μg/mL streptomycin (Invitrogen, Carlsbad, CA, USA) under standard culture conditions. When the cells reached approximately 90% confluency in a culture plate, the cells were washed three times with phosphate buffered saline (PBS) to remove contaminated FBS-derived exosomes, and were then incubated in new serum-free α-MEM supplemented with human recombinant thrombin (1 U/mL, 2 U/mL, and 4 U/mL; Sigma-Aldrich, St. Louis, MO, USA) for 6 hours. After the medium was collected, about 2×10^6 cells per 100 mm culture dish was counted using a Luna-FL™ system (Logos Biosystems, Anyang-si, Korea).
To isolate extracellular vesicles (hereinafter, referred to as EVs) secreted by the umbilical cord blood-derived mesenchymal stem cells pretreated with thrombin according to the method of Example 1-1, an experiment was conducted according to the following processes. Specifically, the above recovered medium was centrifuged at 3,000 rpm and 4° C. for 30 minutes to remove cell debris, and then centrifuged at 100,000 rpm and 4° C. for 120 minutes to precipitate EVs. Then, the precipitated pellet was washed twice, re-suspended in sterile PBS, and stored at −80° C. until use.
The distribution of EVs was analyzed by measuring the rate of Brownian motion using NanoSight (NanoSight NS300; Malvern, Worcestershire, UK), which is equipped with fast video capture and particle-tracking software. The obtained EVs were re-suspended in PBS (500 μl, 1 mg/mL total protein), and size and polydispersity thereof were measured. In addition, to quantify the production of EVs by a single cell, cells were counted using a LUNA-FL system according to the manufacturer's protocol using the medium recovered above. The number of EVs produced by a single cell was calculated by dividing the total number of EVs by the number of cells.

[3] = tested on: ERK1/2 and AKT signaling pathways; test: Immunoblot of ERK1/2 and AKT phosphorylation; format: cell-based, human
Procedure: (§2) Umbilical cord blood-derived mesenchymal stem cells and EVs were lysed by adding an equal volume of RIPA buffer (Sigma-Aldrich, St. Louis, MO, USA). The protein contents of the lysates were quantified using the Bradford method, and samples containing 10 μg of proteins were mixed with loading buffer containing β-mercaptoethanol, boiled for 10 minutes, and separated according to size by 12% SDS-polyacrylamide gel electrophoresis (SDS-PAGE). Subsequently, the separated proteins were transferred to nitrocellulose membranes, and then a 5% bovine serum albumin (BSA) solution was prepared with 0.5% Tween-20-containing 1×PBS-T, the membranes were blocked therewith at room temperature, followed by treatment with primary antibodies and incubation at room temperature for 1 hour. After incubation, the membranes were washed with 1×PBS-T, followed by incubation with anti-mouse or anti-rabbit horseradish peroxidase-conjugated immunoglobulin G (1:2000) secondary antibodies while being stirred at room temperature for 1 hour. Subsequently, after washing with PBS-T, protein bands were detected using an ECL Select chemiluminescence reagent (GE Healthcare Life Sciences, Piscataway, NJ, USA), and band images were acquired with X-ray films.

Rab-5 and EEA-1 = test: Immunoblot of early endosome markers; format: cell-based, human
Procedure: as §2

[4] = tested on: Human umbilical cord blood-derived mesenchymal stem cells (MSCs); test: Bioplex assay / ELISA of proteins in EVs (VEGF, angiogenin, angiopoietin-1, HGF); format: cell-based
Procedure: as §1
To analyze the cytokine levels of EVs by ELISA, an experiment was conducted using the following method. Specifically, a homogenate of isolated EVs was added to a well containing 0.1 mL of lysis buffer in an ELISA kit. Subsequently, proteins in EVs were quantified using the Bradford method, and then 1 μg of protein was loaded into each well. Thereafter, the levels of angiogenin, angiopoietin-1, VEGF, and HGF, which are present in EVs, were quantified using the Fluorokine® MAP Human Angiogenesis Custom Premix Kit A (R & D Systems, Minneapolis, MN, USA).

[5] = tested on: Human umbilical cord blood-derived mesenchymal stem cells (MSCs); test: Observation of EVs by SEM and TEM; format: cell-based; settings: thrombin-pretreated vs not treated, FIG. 1D
Procedure: EVs (5 μl) were fixed with 2% glutaraldehyde, loaded on 200-mesh formvar/carbon-coated electron microscopy grids (Electron Microscopy Sciences, Washington, PA, USA), and incubated for 10 minutes. Subsequently, the EVs were washed with filtered distilled water and stained with 2% uranyl acetate in water for 1 minute. Thereafter, the stained EVs were observed using a Tecnai Spirit G2 transmission electron microscope (FEI, Hillsboro, OR, USA) operating at 120 kV, and then an image thereof was acquired.
Meanwhile, to observe isolated EVs using a scanning electron microscope, EVs were fixed in 2.5% glutaraldehyde and loaded on a polycarbonate membrane. Next, the membrane was washed once with PBS and water and then dehydrated with acetone. Subsequently, the acetone was removed by critical point drying using liquid carbon dioxide. Samples were mounted on aluminum stubs with carbon tape and mounted on an SEM stub. After sputter coating with 3-5 nm platinum, the samples were observed using a scanning electron microscope (Zeiss Auriga Workstation, Oberkochen, Germany) and images thereof were acquired.

[6] = compared to no thrombin, in proportion to thrombin concentration

CC(C)c1ccc(Cn2ccc3c4c(N)nc(NC5CC5)nc4ccc32)cc1.Cl.Cl [SCH79797, N3-cyclopropyl-7-[[4-(1-methylethyl)phenyl]methyl]-7H-pyrrolo[3,2-f]quinazolin-1,3-diamine dihydrochloride, reference compound]
increase in the number of early endosomes by thrombin, comparison ([1]; compared to transfection with PAR3 siRNA, FIG. 5A): more significantly inhibited | increase in the number of early endosomes by thrombin treatment ([1]; thrombin-pretreated MSCs, SCH79797 1 μM, FIG. 5A): significantly inhibited | increase in the number of extracellular vesicles by thrombin, comparison ([2]; compared to transfection with PAR3 siRNA, FIGS. 5B and 5C): inhibited at a higher level | increase in the number of extracellular vesicles by thrombin treatment ([2]; thrombin-pretreated MSC culture media, SCH79797 1 μM, FIGS. 5B and 5C): significantly inhibited | increase in phosphorylation of ERK1/2 and AKT by thrombin, comparison ([3]; compared to PAR-3-specific siRNA treatment, FIG. 4B): inhibited at a more significant level | increase in phosphorylation of ERK1/2 and AKT by thrombin pretreatment ([3]; thrombin-pretreated MSCs, SCH79797 1 μM, FIG. 4B): significantly inhibited | expression levels of Rab-5 and EEA-1, comparison (Rab-5 and EEA-1; thrombin-pretreated MSCs, compared to the PAR3 siRNA-treated group, FIG. 4A): further reduced | expression levels of Rab-5 and EEA-1 (Rab-5 and EEA-1; thrombin-pretreated MSCs, compared to thrombin alone, SCH79797 1 μM, FIG. 4A): significantly reduced | increase in the levels of proteins in EVs, comparison ([4]; compared to transfection with PAR3 siRNA, FIG. 5D): inhibited at a higher level | increase in the levels of VEGF, angiogenin, angiopoietin-1 and HGF in EVs ([4]; thrombin-pretreated MSCs, SCH79797 1 μM, FIG. 5D): significantly inhibited

thrombin
level of early endosomes ([1]; thrombin-pretreated vs naive, FIG. 1C): significantly increased; also recorded: significantly high level | amount of produced extracellular vesicles, increase [2, 6]: ≥ 5 fold | production of EVs ([2]; thrombin 1-4 U/mL): increased in a thrombin concentration-dependent manner | production of EVs ([2]; thrombin 2 U/mL and 4 U/mL): significantly increased | number of isolated EVs ([2]; thrombin-pretreated vs not treated, FIG. 1E): greater number | expression of non-phosphorylated ERK1/2 and AKT ([3]; thrombin treatment, not statistically significant, FIG. 3B): tended to increase slightly | expression of pERK1/2 and pAKT (phosphorylation of ERK1/2 and AKT) ([3]; thrombin-pretreated vs not treated, FIG. 3B): significantly increased | EVs observed by SEM/TEM [5]: more EVs were observed | expression levels of early endosome markers Rab-5 and EEA-1 (Rab-5 and EEA-1; thrombin treatment vs none, FIG. 3A): significantly increased | levels of proteins in extracellular vesicles, increase [4, 6]: ≥ 2 fold | levels of VEGF, angiogenin, angiopoietin-1 and HGF in EVs ([4]; thrombin 2 U/mL and 4 U/mL vs not treated, FIG. 1B): significantly increased
